Source: patent publication US20210323913A1, “SIGMA RECEPTOR BINDERS” (BOARD OF REGENTS, THE UNIVERSITY OF TEXAS SYSTEM, priority 2016, published 2021)
Where two headings read alike, the source gives them in different places.

How the values were obtained:
sigma 2 receptor = sigma 2 receptor (Homo sapiens, UniProt Q5BJF2); test: Sigma 2 receptor radioligand competition binding; conditions: for Ki ratio Sig1R/Sig2R: Table 1, ratio of Sig1R Ki to Sig2R Ki
H1 = H1 (Homo sapiens, UniProt P35367); test: Radioligand competition binding, H1; conditions: Table 5; Cheng-Prusoff from best fit IC50
D3 = D3 (Homo sapiens, UniProt P35462); test: Radioligand competition binding, D3; conditions: Table 5; Cheng-Prusoff from best fit IC50; one value marked (AVE)
PBR = PBR (UniProt P16257); test: Radioligand competition binding, PBR; conditions: Table 5; Cheng-Prusoff from best fit IC50; one value marked (AVE)
Alpha2C = Alpha2C (Homo sapiens, UniProt P18825); test: Radioligand competition binding, Alpha2C; conditions: Table 5; Cheng-Prusoff from best fit IC50
Alpha1D = Alpha1D (Homo sapiens, UniProt P25100); test: Radioligand competition binding, Alpha1D; conditions: Table 5; Cheng-Prusoff from best fit IC50
5-HT2A = 5-HT2A (Homo sapiens, UniProt P28223); test: Radioligand competition binding, 5-HT2A; conditions: Table 5; Cheng-Prusoff from best fit IC50
D5 = D5 (Homo sapiens, UniProt P21918); test: Radioligand competition binding, D5; conditions: Table 5; Cheng-Prusoff from best fit IC50
KOR = KOR (Homo sapiens, UniProt P41145); test: Radioligand competition binding, KOR; conditions: Table 5; Cheng-Prusoff from best fit IC50; some values marked (AVE)
H2 = H2 (Homo sapiens, UniProt P25021); test: Radioligand competition binding, H2; conditions: Table 5; Cheng-Prusoff from best fit IC50
5-HT1D = 5-HT1D (Homo sapiens, UniProt P28221); test: Radioligand competition binding, 5-HT1D; conditions: Table 5; Cheng-Prusoff from best fit IC50
M5 = M5 (Homo sapiens, UniProt P08912); test: Radioligand competition binding, M5; conditions: Table 5; Cheng-Prusoff from best fit IC50
H3 = H3 (Homo sapiens, UniProt Q9Y5N1); test: Radioligand competition binding, H3; conditions: Table 5; Cheng-Prusoff from best fit IC50
5-ht5a = 5-ht5a (Homo sapiens, UniProt P47898); test: Radioligand competition binding, 5-ht5a; conditions: Table 5; Cheng-Prusoff from best fit IC50
Alpha2A = biological target: T1, Alpha2A (Homo sapiens, UniProt P08913); test: Radioligand competition binding, Alpha2A; conditions: Table 5; Cheng-Prusoff from best fit IC50
T1 sequence (P08913 1-465): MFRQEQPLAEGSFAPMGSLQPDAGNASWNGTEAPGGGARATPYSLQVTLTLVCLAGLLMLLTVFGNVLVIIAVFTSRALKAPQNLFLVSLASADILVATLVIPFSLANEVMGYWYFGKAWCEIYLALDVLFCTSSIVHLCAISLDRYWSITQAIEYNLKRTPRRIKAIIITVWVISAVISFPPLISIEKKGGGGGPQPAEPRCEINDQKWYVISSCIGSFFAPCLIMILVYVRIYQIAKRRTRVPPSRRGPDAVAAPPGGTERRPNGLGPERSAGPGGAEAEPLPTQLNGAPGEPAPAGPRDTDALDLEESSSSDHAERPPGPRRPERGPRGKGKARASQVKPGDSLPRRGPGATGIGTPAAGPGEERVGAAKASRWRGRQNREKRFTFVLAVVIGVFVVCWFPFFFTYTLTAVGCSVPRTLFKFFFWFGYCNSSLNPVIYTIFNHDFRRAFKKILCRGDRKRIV

5-HT7 = 5-HT7 (Homo sapiens, UniProt P34969); test: Radioligand competition binding, 5-HT7; conditions: Table 5; Cheng-Prusoff from best fit IC50
sigma 1 receptor = sigma 1 receptor (Homo sapiens, UniProt Q99720); test: Sigma 1 receptor radioligand competition binding
M4 = M4 (Homo sapiens, UniProt P08173); test: Radioligand competition binding, M4; conditions: Table 5; Cheng-Prusoff from best fit IC50; one value marked (AVE)
5-HT6 = 5-HT6 (Homo sapiens, UniProt P50406); test: Radioligand competition binding, 5-HT6; conditions: Table 5; Cheng-Prusoff from best fit IC50
5-HT2B = 5-HT2B (Homo sapiens, UniProt P41595); test: Radioligand competition binding, 5-HT2B; conditions: Table 5; Cheng-Prusoff from best fit IC50
5-HT1A = biological target: T2, 5-HT1A (Homo sapiens, UniProt P08908); test: Radioligand competition binding, 5-HT1A; conditions: Table 5; Cheng-Prusoff from best fit IC50
T2 sequence (P08908 1-422): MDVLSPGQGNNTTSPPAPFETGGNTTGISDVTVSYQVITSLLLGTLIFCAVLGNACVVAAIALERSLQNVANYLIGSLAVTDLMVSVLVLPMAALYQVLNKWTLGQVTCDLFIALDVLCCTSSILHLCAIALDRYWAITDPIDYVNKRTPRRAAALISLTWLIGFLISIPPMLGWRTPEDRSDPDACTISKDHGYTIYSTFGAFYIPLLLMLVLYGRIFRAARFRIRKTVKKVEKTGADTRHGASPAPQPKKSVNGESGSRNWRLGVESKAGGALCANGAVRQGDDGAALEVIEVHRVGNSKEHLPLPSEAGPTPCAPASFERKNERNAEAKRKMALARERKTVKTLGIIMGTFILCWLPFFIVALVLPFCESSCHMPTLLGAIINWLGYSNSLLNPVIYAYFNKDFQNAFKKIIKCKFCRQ

D1 = D1 (Homo sapiens, UniProt P21728); test: Radioligand competition binding, D1; conditions: Table 5; Cheng-Prusoff from best fit IC50; some values marked (AVE)
5-HT2C = biological target: T3, 5-HT2C (Homo sapiens, UniProt P28335); test: Radioligand competition binding, 5-HT2C; conditions: Table 5; Cheng-Prusoff from best fit IC50
T3 sequence (P28335 33-458): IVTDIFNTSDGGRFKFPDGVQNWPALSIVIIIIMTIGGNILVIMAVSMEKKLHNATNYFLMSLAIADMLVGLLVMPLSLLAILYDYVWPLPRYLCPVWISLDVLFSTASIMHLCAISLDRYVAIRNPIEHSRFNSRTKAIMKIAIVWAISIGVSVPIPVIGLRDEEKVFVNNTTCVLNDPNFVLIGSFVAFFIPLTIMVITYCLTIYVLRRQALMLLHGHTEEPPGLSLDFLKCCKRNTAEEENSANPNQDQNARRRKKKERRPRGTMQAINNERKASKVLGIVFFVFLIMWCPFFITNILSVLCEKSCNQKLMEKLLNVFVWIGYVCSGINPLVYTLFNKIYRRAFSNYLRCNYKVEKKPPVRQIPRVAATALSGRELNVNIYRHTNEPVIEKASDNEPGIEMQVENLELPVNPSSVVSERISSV

Alpha2B = Alpha2B (Homo sapiens, UniProt P18089); test: Radioligand competition binding, Alpha2B; conditions: Table 5; Cheng-Prusoff from best fit IC50
MOR = MOR (Homo sapiens, UniProt P35372); test: Radioligand competition binding, MOR; conditions: Table 5; Cheng-Prusoff from best fit IC50
Beta3 = Beta3 (Homo sapiens, UniProt P13945); test: Radioligand competition binding, Beta3; conditions: Table 5; Cheng-Prusoff from best fit IC50
5-HT1B = 5-HT1B (Homo sapiens, UniProt P28222); test: Radioligand competition binding, 5-HT1B; conditions: Table 5; Cheng-Prusoff from best fit IC50
D4 = biological target: T4, D4 (Homo sapiens, UniProt P21917); test: Radioligand competition binding, D4; conditions: Table 5; Cheng-Prusoff from best fit IC50
T4 sequence (P21917 1-419): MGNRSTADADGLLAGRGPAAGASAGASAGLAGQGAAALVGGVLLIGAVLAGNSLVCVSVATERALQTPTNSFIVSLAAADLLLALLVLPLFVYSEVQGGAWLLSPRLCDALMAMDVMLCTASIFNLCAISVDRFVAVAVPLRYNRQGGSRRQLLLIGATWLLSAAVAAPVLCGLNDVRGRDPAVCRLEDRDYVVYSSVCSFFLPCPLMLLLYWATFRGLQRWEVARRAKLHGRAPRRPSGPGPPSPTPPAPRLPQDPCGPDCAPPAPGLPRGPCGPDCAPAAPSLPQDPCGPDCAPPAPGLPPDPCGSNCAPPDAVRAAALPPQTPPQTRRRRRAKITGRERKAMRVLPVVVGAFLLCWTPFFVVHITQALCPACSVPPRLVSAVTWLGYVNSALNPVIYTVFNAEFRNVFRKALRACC

DAT = DAT (Homo sapiens, UniProt Q01959); test: Radioligand competition binding, DAT; conditions: Table 5; Cheng-Prusoff from best fit IC50
Alpha1A = Alpha1A (Homo sapiens, UniProt P35348); test: Radioligand competition binding, Alpha1A; conditions: Table 5; Cheng-Prusoff from best fit IC50
D2 = D2 (Homo sapiens, UniProt P14416); test: Radioligand competition binding, D2; conditions: Table 5; Cheng-Prusoff from best fit IC50
H4 = H4 (Homo sapiens, UniProt Q9H3N8); test: Radioligand competition binding, H4; conditions: Table 5; Cheng-Prusoff from best fit IC50; value marked (AVE)
[1] = Table 5, Cheng-Prusoff from best fit IC50, read-out: Ki Sigma 2
[2] = Table 1, 7-piperazinyl-tetrahydronaphthalene analogs, read-out: Ki (nM) Sig2R
[3] = Table 1, 7-piperazinyl-tetrahydronaphthalene analogs, read-out: Ki (nM) Sig1R

Row | Ki (sigma 2 receptor; [1]) [nM] | Ki (H1) [nM] | Ki (D5) [nM] | SMILES | Ki (D3) [nM] | Ki (PBR) [nM] | Ki (sigma 2 receptor; [2]) [nM] | Ki ratio Sig1R/Sig2R (sigma 2 receptor) | Ki (Alpha1D) [nM] | Ki (5-HT2A) [nM] | Ki (H2) [nM] | Ki (5-HT1D) [nM] | Ki (5-ht5a) [nM] | Ki (5-HT7) [nM] | Ki (sigma 1 receptor; [3]) [nM] | Ki (5-HT6) [nM] | Ki (5-HT2B) [nM] | Ki (5-HT1A) [nM] | Ki (D1) [nM] | Ki (5-HT1B) [nM] | Ki (D4) [nM] | further results
1 | 522 | 182 |  | CN(Cc1cc(Cl)cc(Cl)c1)C1CCCc2ccc(N3CCOCC3)cc21 (stereo not drawn) [MDW-1-131, N-(3,5-dichlorobenzyl)-N-methyl-7-morpholino-1,2,3,4-tetrahydronaphthalen-1-amine] | 3390 | 902 |  |  |  |  |  |  |  |  |  |  |  |  |  |  |  | Ki (Alpha2C): 2540 nM
2 | 50 |  | > 10000 | CN(CCCO)C1CCCc2ccc(-c3ccc(C(F)(F)F)cc3)cc21 (stereo not drawn) [MDW-1-144, 3-(Methyl(7-(4-(trifluoromethyl)phenyl)-1,2,3,4-tetrahydronaphthalen-1-yl)amino)propan-1-ol] |  |  |  |  |  |  | 327 |  | > 10000 | 2400 |  |  | 3590 |  |  |  |  | Ki (Alpha2B): 524 nM; Ki (KOR): 154 nM; Ki (sigma 1 receptor; Table 5, Cheng-Prusoff from best fit IC50, read-out: Ki Sigma 1): 1270 nM; Ki (MOR): 307 nM
3 |  |  |  | CCCN(C(=O)OCc1ccccc1)C1CCCc2ccc(N3CCN(CCC(=O)OCC)CC3)cc21 (stereo not drawn) [MDW-1-191, Ethyl 3-(4-(8-(((benzyloxy)carbonyl)(propyl)amino)-5,6,7,8-tetrahydronaphthalen-2-yl)piperazin-1-yl)propanoate] | 315 | 1670 | 19 | 124 |  | 1730 | 1290 | 1140 | 1530 | 891 | 2360 | 1560 | 771 | 569 |  | 441 | 1720 | Ki (DAT): > 10000 nM; Ki (Alpha1A): 1410 nM; Ki (D2): 2410 nM
4 | 5.5 | 20 | 3960 | CCCN1CCN(c2ccc3c(c2)C(N(C)C(=O)OCc2ccccc2)CCC3)CC1 (stereo not drawn) [MDW-2-76, Benzyl methyl(7-(4-propylpiperazin-1-yl)-1,2,3,4-tetrahydronaphthalen-1-yl)carbamate] | 438 | 8330 | 6 | 36 | 2600 | 315 | 302 | 135 |  | 459 | 200 | 778 | 100 | 156 | 690 | 362 | 6660 | Ki (Alpha2B): 3330 nM; Ki (Alpha1A): 2360 nM; Ki (M5): 6620 nM; Ki (H3): 1350 nM; Ki (Alpha2A): 1030 nM; Ki (H4): 5880 nM; Ki (5-HT2C): 762 nM

Row | SMILES | Ki (sigma 2 receptor; [1]) [nM] | Ki (H1) [nM] | Ki (D5) [nM] | Ki (D3) [nM] | Ki (PBR) [nM] | Ki (sigma 2 receptor; [2]) [nM] | Ki ratio Sig1R/Sig2R (sigma 2 receptor) | Ki (Alpha1D) [nM] | Ki (5-HT2A) [nM] | Ki (H2) [nM] | Ki (5-HT1D) [nM] | Ki (5-ht5a) [nM] | Ki (5-HT7) [nM] | Ki (sigma 1 receptor; [3]) [nM] | Ki (5-HT6) [nM] | Ki (5-HT2B) [nM] | Ki (5-HT1A) [nM] | Ki (D1) [nM] | Ki (5-HT1B) [nM] | Ki (D4) [nM] | further results
5 | CN(C(=O)OCc1ccccc1)C1CCCc2ccc(N3CCN(C4CCCC4)CC3)cc21 (stereo not drawn) [MDW-1-140, Benzyl (7-(4-cyclopentylpiperazin-1-yl)-1,2,3,4-tetrahydronaphthalen-1-yl)(methyl)carbamate] | 2.1 | 28 | 2600 | 462 | 4060 | 2 | 41 | 1810 | 547 | 211 | 509 | 2500 | 1480 | 86 | 1020 | 263 | 367 | 457 |  |  | Ki (KOR): ≥ 10000 nM; Ki (M5): 3690 nM; Ki (H3): 965 nM; Ki (Alpha2A): 1110 nM; Ki (M4): 2980 nM; Ki (5-HT2C): 1460 nM
6 | CN(C(=O)OCc1ccccc1)C1CCCc2ccc(N3CCN(CCCO)CC3)cc21 (stereo not drawn) [MDW-1-177, Benzyl (7-(4-(3-hydroxypropyl)piperazin-1-yl)-1,2,3,4-tetrahydronaphthalen-1-yl)(methyl)carbamate] | 21 |  |  | 597 |  | 21 | 23 |  | 632 | 291 | 136 |  | 585 | 474 | 1230 | 99 | 528 | 1350 | 261 | > 10000 | Ki (Beta3): 8040 nM
